Assay results as given in ChEMBL document CHEMBL3046756, “Synthesis, anti-inflammatory, and structure antioxidant activity relationship of novel 4-quinazoline” (Med Chem Res, 2013).
The source made the active and inactive calls. The calls are words filed in the database; no cut-off is given here.

Legend:
Mus musculus [1] = assay: Toxicity in albino Mus musculus (mouse) assessed as change in skin color at 150 to 900 mg/kg, ip measured within 24 hr; format: organism-based; set-up: dose 150-900 mg/kg, route intraperitoneal; conditions: in vivo
Mus musculus [2] = assay: Toxicity in albino Mus musculus (mouse) assessed as increase in heart rate at 150 to 900 mg/kg, ip measured within 1 to 2 hr; format: organism-based; set-up: route intraperitoneal; conditions: in vivo
Mus musculus [3] = assay: Toxicity in albino Mus musculus (mouse) assessed as change in toes color at 150 to 900 mg/kg, ip measured within 24 hr; format: organism-based; set-up: dose 150-900 mg/kg, route intraperitoneal; conditions: in vivo
Mus musculus [4] = assay: Toxicity in albino Mus musculus (mouse) assessed as change in temperature at extremities at 150 to 900 mg/kg, ip measured within 24 hr; format: organism-based; set-up: dose 150-900 mg/kg, route intraperitoneal; conditions: in vivo
[5] = Antioxidant activity assessed as inhibition of linoleic acid peroxidation at 100 mg/l after 24 hr by spectrophotometric analysis; format: functional
[6] = Antioxidant activity assessed as Fe2+ chelating activity at 1.25 mg/ml after 90 min by spectrophotometric analysis; format: functional
Mus musculus [7] = assay: Toxicity in albino Mus musculus (mouse) assessed as change in temperature at extremities at 650 to 1800 mg/kg, ip measured within 24 hr; format: organism-based; set-up: dose 650-1800 mg/kg, route intraperitoneal; conditions: in vivo

| SMILES | Activity (Mus musculus [1]) | Activity (Mus musculus [2]) | Activity (Mus musculus [3]) | Activity (Mus musculus [4]) | inhibition [5] | Activity [6] [%] | Activity (Mus musculus [7]) |
| --- | --- | --- | --- | --- | --- | --- | --- |
| O=c1c2ccccc2nc2n1NC(c1ccc(O)c(O)c1)C2 (configuration not stated) | Toxic | Toxic | Toxic | Toxic |  |  |  |
| COC(=O)c1ccccc1NC(=O)/C=C/c1ccc(O)c(O)c1 |  |  |  |  | Active | 30 | Toxic |
